System: hyaluronidase
Test: Hyaluronic Acid Viscometry Assay (degradation of HA by hyaluronidase)
Format: biochemical
Excerpt: The time for the sample to run through the viscometer was proportional to the viscosity of HA in the sample, which, in turn, was proportional to the molecular weight of the HA. As the enzyme (hyaluronidase) breaks down HA, the molecular weight of the polymer is reduced, the viscosity of the solution drops, and the solution runs through the viscometer more rapidly. Accordingly, shorter run times indicated lower molecular weights of HA (i.e., more breakdown of the HA by hyaluronidase), whereas longer times indicated higher molecular weights of HA (i.e., less breakdown of the HA by hyaluronidase).
0.07% HA solutions were prepared as follows: […] and […] pH 5.5 phosphate buffer (1 M) were combined in a scintillation vial. […] The solutions were allowed to dissolve overnight at 37° C. The pH's were checked and adjusted to 6.0. The viscosity of the solutions was analyzed by measuring the run time through an Ubbelohde PC1 viscometer. 50 μl of hyaluronidase (4.2 mg in 620 ul of water) was added per vial (final concentration approximately 6 units/ml) and incubated overnight with shaking. A viscometer reading was recorded for each solution after overnight incubation.

[1] = 10 mg/ml, without enzyme (Example 4)

| Time (minutes) for sample to run through viscometer (10 mg/ml, with enzyme (Example 4)) [min] | Time (minutes) for sample to run through viscometer [1] [min] | Effect on hyaluronidase (viscosity of HA solution versus enzyme control) (Example 4, 10 mg/ml) | Time (minutes) for sample to run through viscometer (0 mg/ml (so in the source), with enzyme (Example 4)) [min] | Degradation of HA (% viscosity relative to control t = 0) (10 mg/ml, with hyaluronidase (Example 2)) [%] | Effect on hyaluronidase (viscosity of HA solution versus enzyme control) (Example 2, concentrations of Table 2) | Molecule |
| --- | --- | --- | --- | --- | --- | --- |
| 4.36 | 5.5 | inhibit the action of hyaluronidase | – | – | – | SPAN 80 |
| – | 5.85 | inhibit the action of hyaluronidase | 5 | 65 | inhibit the action of hyaluronidase | CC(O)CO (centres unmarked) [Propylene glycol] |
